Laboratory results: EP4667458A1 (Kanaph Therapeutics Inc., priority 2023, dated 2024)

Biological target: T1, KRAS^G12C::SOS1 (Homo sapiens, UniProt Q07889)
T1 sequence (Q07889 1-1333): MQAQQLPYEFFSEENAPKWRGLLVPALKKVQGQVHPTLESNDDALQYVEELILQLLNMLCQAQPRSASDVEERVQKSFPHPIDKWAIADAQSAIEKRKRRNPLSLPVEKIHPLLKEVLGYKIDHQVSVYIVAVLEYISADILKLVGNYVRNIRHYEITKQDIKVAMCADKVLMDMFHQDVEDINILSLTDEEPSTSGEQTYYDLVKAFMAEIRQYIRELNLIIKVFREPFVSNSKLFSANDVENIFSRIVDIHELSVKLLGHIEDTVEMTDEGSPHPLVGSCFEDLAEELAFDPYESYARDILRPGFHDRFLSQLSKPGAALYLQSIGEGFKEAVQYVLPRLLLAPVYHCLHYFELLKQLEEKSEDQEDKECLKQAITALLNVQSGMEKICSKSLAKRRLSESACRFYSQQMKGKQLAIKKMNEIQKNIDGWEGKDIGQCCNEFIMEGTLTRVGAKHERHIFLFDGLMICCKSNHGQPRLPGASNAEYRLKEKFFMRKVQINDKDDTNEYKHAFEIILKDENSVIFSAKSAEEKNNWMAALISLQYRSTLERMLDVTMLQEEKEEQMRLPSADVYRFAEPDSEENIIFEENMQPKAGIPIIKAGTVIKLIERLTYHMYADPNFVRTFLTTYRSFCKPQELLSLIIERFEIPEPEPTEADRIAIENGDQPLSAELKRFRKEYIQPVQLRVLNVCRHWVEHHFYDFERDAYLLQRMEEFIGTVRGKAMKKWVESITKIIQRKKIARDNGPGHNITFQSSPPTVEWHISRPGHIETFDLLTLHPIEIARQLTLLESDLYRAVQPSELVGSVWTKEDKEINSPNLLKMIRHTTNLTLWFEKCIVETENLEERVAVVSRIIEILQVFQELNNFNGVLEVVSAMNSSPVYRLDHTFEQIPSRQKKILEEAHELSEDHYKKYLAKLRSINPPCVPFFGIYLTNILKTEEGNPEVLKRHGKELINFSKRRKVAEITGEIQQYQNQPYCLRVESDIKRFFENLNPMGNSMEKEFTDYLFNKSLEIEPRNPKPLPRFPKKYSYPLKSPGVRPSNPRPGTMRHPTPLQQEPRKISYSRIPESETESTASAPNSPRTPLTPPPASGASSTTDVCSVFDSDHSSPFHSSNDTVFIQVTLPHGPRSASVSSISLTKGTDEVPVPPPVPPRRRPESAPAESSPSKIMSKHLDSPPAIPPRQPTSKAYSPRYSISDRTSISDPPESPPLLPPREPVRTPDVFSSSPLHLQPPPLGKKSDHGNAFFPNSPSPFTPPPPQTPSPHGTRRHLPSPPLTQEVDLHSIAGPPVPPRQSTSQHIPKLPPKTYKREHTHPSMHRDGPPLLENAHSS
Test: KRAS G12C::SOS1 protein-protein interaction (PPI) inhibition assay (HTRF binding kit)

C[C@@H](NC(=O)c1nn(-c2ccccc2F)c(=O)cc1Nc1ccccc1)c1cc(N)cc(C(F)(F)F)c1 [Example 210, N-[(1R)-1-[3-amino-5-(trifluoromethyl)phenyl]ethyl]-4-anilino-1-(2-fluorophenyl)-6-oxo-pyridazine-3-carboxamide] and C[C@@H](NC(=O)c1ccc(=O)n(-c2ccc(F)cc2F)n1)c1cc(N)cc(C(F)(F)F)c1 [Example 362, N-[(1R)-1-[3-amino-5-(trifluoromethyl)phenyl]ethyl]-1-(2,4-difluorophenyl)-6-oxo-pyridazine-3-carboxamide] cannot be ordered by IC50: under 1 µM for the first, under 1 µM for the second.

C[C@@H](NC(=O)c1ccc(=O)n(-c2cccc(-c3nccs3)c2)n1)c1cc(N)cc(C(F)(F)F)c1 [Example 337, N-[(1R)-1-[3-amino-5-(trifluoromethyl)phenyl]ethyl]-6-oxo-1-(3-thiazol-2-ylphenyl)pyridazine-3-carboxamide] and C[C@@H](NC(=O)c1ccc(=O)n(-c2cccc(-c3ccnn3C)c2)n1)c1cc(N)cc(C(F)(F)F)c1 [Example 333, N-[(1R)-1-[3-amino-5-(trifluoromethyl)phenyl]ethyl]-1-[3-(2-methylpyrazol-3-yl)phenyl]-6-oxo-pyridazine-3-carboxamide] cannot be ordered by IC50: under 1 µM for the first, under 1 µM for the second.

CNCc1ccsc1-c1cccc([C@@H](C)NC(=O)c2ccc(=O)n(-c3ccccc3F)n2)c1 [Example 294, 1-(2-fluorophenyl)-N-[(1R)-1-[3-[3-(methylaminomethyl)-2-thienyl]phenyl]ethyl]-6-oxo-pyridazine-3-carboxamide] and CNCc1ccccc1-c1csc([C@@H](C)NC(=O)c2ccc(=O)n(-c3ccccc3F)n2)c1 [Example 267, 1-(2-fluorophenyl)-N-[(1R)-1-[4-[2-(methylaminomethyl)phenyl]-2-thienyl]ethyl]-6-oxo-pyridazine-3-carboxamide] cannot be ordered by IC50: under 1 µM for the first, under 1 µM for the second.

COc1cccc(-n2nc(C(=O)N[C@H](C)c3cc(N)cc(C(F)(F)F)c3)ccc2=O)c1F [Example 185, N-[(1R)-1-[3-amino-5-(trifluoromethyl)phenyl]ethyl]-1-(2-fluoro-3-methoxy-phenyl)-6-oxo-pyridazine-3-carboxamide] and COc1ccc(-n2cc(C(=O)N[C@H](C)c3cc(N)cc(C(F)(F)F)c3)ccc2=O)c(F)c1 [Example 180, N-[(1R)-1-[3-amino-5-(trifluoromethyl)phenyl]ethyl]-1-(2-fluoro-4-methoxy-phenyl)-6-oxo-pyridine-3-carboxamide] cannot be ordered by IC50: under 1 µM for the first, under 1 µM for the second.

CNCc1ccc(Cl)cc1-c1ccc([C@@H](C)NC(=O)c2ccc(=O)n(C3CCN(C(C)=O)CC3)n2)s1 [Example 301, 1-(1-acetyl-4-piperidyl)-N-[(1R)-1-[5-[5-chloro-2-(methylaminomethyl)phenyl]-2-thienyl]ethyl]-6-oxo-pyridazine-3-carboxamide] and CNCc1ccc(Cl)cc1-c1ccc([C@@H](C)NC(=O)c2ccc(=O)n(C3CCOCC3)n2)s1 [Example 411] cannot be ordered by IC50: under 1 µM for the first, under 1 µM for the second.

First: C[C@H](NC(=O)c1ccc(=O)n(-c2ccccc2F)n1)c1cc(N)cc(C(F)(F)F)n1 [Example 394, N-[(1S)-1-[4-amino-6-(trifluoromethyl)-2-pyridyl]ethyl]-1-(2-fluorophenyl)-6-oxo-pyridazine-3-carboxamide]
Second: C[C@@H](NC(=O)c1ccc(=O)n(-c2cc(F)ccc2F)n1)c1cccc(C(F)(F)CO)c1F [Example 356, N-[(1R)-1-[3-(1,1-difluoro-2-hydroxy-ethyl)-2-fluoro-phenyl]ethyl]-1-(2,5-difluorophenyl)-6-oxo-pyridazine-3-carboxamide]
The IC50 of the first is higher: over 10 µM for the first, under 1 µM for the second.

C[C@@H](NC(=O)c1ccc(=O)n(CCO)n1)c1cc(N)cc(C(F)(F)F)c1 [Example 223, N-[(1R)-1-[3-amino-5-(trifluoromethyl)phenyl]ethyl]-1-(2-hydroxyethyl)-6-oxo-pyridazine-3-carboxamide] and C[C@@H](NC(=O)c1cc(Br)c(=O)n(-c2ccccc2)n1)c1cc(N)cc(C(F)(F)F)c1 [Example 241, (R)-N-(1-(3-amino-5-(trifluoromethyl)phenyl)ethyl)-5-bromo-6-oxo-1-phenyl-1,6-dihydropyridazine-3-carboxamide] cannot be ordered by IC50: under 1 µM for the first, under 1 µM for the second.

COc1cc(-n2nc(C(=O)N[C@H](C)c3cccc(C(F)(F)CO)c3F)ccc2=O)ccn1 [Example 193, N-[(1R)-1-[3-(1,1-difluoro-2-hydroxy-ethyl)-2-fluoro-phenyl]ethyl]-1-(2-methoxy-4-pyridyl)-6-oxo-pyridazine-3-carboxamide] and COc1ccc(-n2cc(C(=O)N[C@H](C)c3cccc(C(F)(F)CO)c3F)ccc2=O)c(F)c1 [Example 179, N-[(1R)-1-[3-(1,1-difluoro-2-hydroxy-ethyl)-2-fluoro-phenyl]ethyl]-1-(2-fluoro-4-methoxyphenyl)-6-oxo-pyridine-3-carboxamide] cannot be ordered by IC50: under 1 µM for the first, under 1 µM for the second.

CNCc1cc2c(cc1-c1ccc([C@@H](C)NC(=O)c3ccc(=O)n(-c4ccccc4F)c3)s1)CC2 [Example 276, 1-(2-fluorophenyl)-N-[(1R)-1-[5-[4-(methylaminomethyl)-3-bicyclo[4.2.0]octa-1,3,5-trienyl]-2-thienyl]ethyl]-6-oxo-pyridine-3-carboxamide] and CNCc1ccc(F)cc1-c1ccc([C@@H](C)NC(=O)c2ccc(=O)n(-c3ccccc3F)n2)s1 [Example 286, N-[(1R)-1-[5-[5-fluoro-2-(methylaminomethyl)phenyl]-2-thienyl]ethyl]-1-(2-fluorophenyl)-6-oxo-pyridazine-3-carboxamide] cannot be ordered by IC50: under 1 µM for the first, under 1 µM for the second.

Compared with CCn1nncc1-c1cccc(-n2nc(C(=O)N[C@H](C)c3cc(N)cc(C(F)(F)F)c3)ccc2=O)c1 [Example 327, N-[(1R)-1-[3-amino-5-(trifluoromethyl)phenyl]ethyl]-1-[3-(3-ethyltriazol-4-yl)phenyl]-6-oxo-pyridazine-3-carboxamide], C[C@@H](NC(=O)c1ccc(=O)n(-c2ccccc2F)n1)c1cccc(-n2ccccc2=O)c1 [Example 303, 1-(2-fluorophenyl)-6-oxo-N-[(1R)-1-[3-(2-oxo-1-pyridyl)phenyl]ethyl]pyridazine-3-carboxamide] is higher in IC50: under 1 µM for the first, over 10 µM for the second.

First: COc1ccc(-n2nc(C(=O)N[C@H](C)c3cccc(C(F)(F)CO)c3F)c(C3CC3)cc2=O)c(F)c1 [Example 366, 4-cyclopropyl-N-[(1R)-1-[3-(1,1-difluoro-2-hydroxy-ethyl)-2-fluorophenyl]ethyl]-1-(2-fluoro-4-methoxy-phenyl)-6-oxopyridazine-3-carboxamide]
Second: CNCc1cc(Cl)c(F)cc1-c1ccc([C@@H](C)NC(=O)c2ccc(=O)n(-c3cccnc3F)n2)s1 [Example 400, N-[(1R)-1-(5-{4-chloro-5-fluoro-2-[(methylamino)methyl]phenyl}thiophen-2-yl)ethyl]-1-(2-fluoropyridin-3-yl)-6-oxo-1,6-dihydropyridazine-3-carboxamide]
The IC50 of the first is higher: 1 to 10 µM for the first, under 1 µM for the second. The second is the more potent here.

CNCc1ccccc1-c1ccc([C@@H](C)NC(=O)c2ccc(=O)n(-c3cccnc3F)n2)s1 [Example 412, 1-(2-fluoropyridin-3-yl)-N-[(1R)-1-(5-{2-[(methylamino)methyl]phenyl}thiophen-2-yl)ethyl]-6-oxo-1,6-dihydropyridazine-3-carboxamide] gave an IC50 of under 1 µM.
